From ChEMBL document CHEMBL4004872, “A robust synthesis of functionalized 2H-indazoles via solid state melt reaction (SSMR) and their anti-tubercular activity” (Bioorg Med Chem Lett, 2017)
Converted amounts (≈) assume the structure as drawn.

Key:
[1] = tested on: Mycobacterium tuberculosis; assay: Antitubercular activity against Mycobacterium tuberculosis H37Rv after 7 days by Alamar blue assay; assay type: functional; settings: 168 h
[2] = Cytotoxicity against mouse RAW264.7 cells assessed as growth inhibition at 50 ug/ml after 48 hrs by MTT assay relative to control; assay type: cell-based; settings: read-out: GI

Row | Structure (SMILES) | MIC99 [1] | inhibition at 48 h, 50 ug/ml [2]
1 | Cc1ccnc(NC(=O)c2ccccc2-n2cc3ccccc3n2)c1 | 38.1 µM (≈ 12.5 µg/mL) | –
2 | Cc1ccc(CNC(=O)c2ccccc2-n2cc3ccccc3n2)cc1 | 9.16 µM (≈ 3.13 µg/mL) | 34.5%
3 | NNC(=O)c1ccncc1 [ISONIAZID] | 0.4 µM (≈ 0.0549 µg/mL) | –
4 | CO[C@H]1/C=C/O[C@@]2(C)Oc3c(C)c(O)c4c(O)c(c(/C=N/N5CCN(C)CC5)c(O)c4c3C2=O)NC(=O)/C(C)=C\C=C\[C@H](C)[C@H](O)[C@@H](C)[C@@H](O)[C@@H](C)[C@H](OC(C)=O)[C@@H]1C [RIFAMPIN] | 0.5 µM (≈ 0.411 µg/mL) | –
5 | COc1ccc(NC(=O)c2ccccc2-n2cc3ccccc3n2)cc1 | 36.4 µM (≈ 12.5 µg/mL) | –
6 | O=C(Nc1ccccn1)c1ccccc1-n1cc2ccccc2n1 | 19.9 µM (≈ 6.26 µg/mL) | 31.8%
7 | O=C(NCc1ccccc1Cl)c1ccccc1-n1cc2ccccc2n1 | 10.6 µM (≈ 3.83 µg/mL) | 23.7%
8 | O=C(NCc1ccc(Cl)cc1)c1ccccc1-n1cc2ccccc2n1 | 8.66 µM (≈ 3.13 µg/mL) | 28.1%
9 | COc1cc(NC(=O)c2ccccc2-n2cc3ccccc3n2)cc(OC)c1OC | 7.75 µM (≈ 3.13 µg/mL) | 32.1%
10 | O=C(NCc1ccccc1)c1ccccc1-n1cc2ccc(Cl)cc2n1 | 17.3 µM (≈ 6.26 µg/mL) | 30.6%
11 | O=C(Nc1ccccc1)c1ccccc1-n1cc2ccccc2n1 | 15.8 µM (≈ 4.96 µg/mL) | 39.6%
12 | O=C(NCc1ccccc1)c1ccccc1-n1cc2cc3c(cc2n1)OCO3 | 4.2 µM (≈ 1.56 µg/mL) | 22.9%
13 | O=C(NCc1ccccc1)c1ccccc1-n1cc2cc(Br)ccc2n1 | 7.72 µM (≈ 3.14 µg/mL) | 40.5%
14 | CC[C@@H](CO)NCCN[C@@H](CC)CO [ETHAMBUTOL] | 7.6 µM (≈ 1.55 µg/mL) | –
15 | O=C(NCCc1c[nH]c2ccccc12)c1ccccc1-n1cc2ccccc2n1 | 16.4 µM (≈ 6.25 µg/mL) | 18.8%
16 | O=C(Nc1ccc(F)cc1)c1ccccc1-n1cc2ccccc2n1 | 37.8 µM (≈ 12.5 µg/mL) | –
17 | Cc1ccc(NC(=O)c2ccccc2-n2cc3ccccc3n2)c(C)c1 | 18.3 µM (≈ 6.25 µg/mL) | 36.7%
18 | COc1ccc(CNC(=O)c2ccccc2-n2cc3ccccc3n2)cc1 | 35 µM (≈ 12.5 µg/mL) | –
19 | O=C(NCc1ccccc1)c1ccccc1-n1cc2ccccc2n1 | 19.1 µM (≈ 6.26 µg/mL) | 31.6%
20 | O=C(Nc1ccccc1O)c1ccccc1-n1cc2ccccc2n1 | 38 µM (≈ 12.5 µg/mL) | –
21 | CC(C)(C)NC(=O)c1ccccc1-n1cc2ccccc2n1 | 42.7 µM (≈ 12.5 µg/mL) | –
22 | O=C(NCc1ccc(F)cc1)c1ccccc1-n1cc2ccccc2n1 | 36.3 µM (≈ 12.6 µg/mL) | –
23 | O=C(NC1CCCCC1)c1ccccc1-n1cc2ccccc2n1 | 78.4 µM (≈ 25 µg/mL) | –
24 | CCCCNC(=O)c1ccccc1-n1cc2ccccc2n1 | 85.3 µM (≈ 25 µg/mL) | –
25 | O=C(NCc1ccccc1)c1ccccc1-n1cc2ccc(Br)cc2n1 | 56.4 µM (≈ 22.9 µg/mL) | –
